In US20240316084A1, “COMPOSITIONS FOR USE IN PROMOTING ACCELERATED BUTYRATE PRODUCTION IN YOUNG CHILDREN” (SOCIETE DES PRODUITS NESTLE S.A., priority 2020, published 2024):

Experiments:
Assay type in all cases: cell-based, human
[1] = test system: gut microbiota of an infant; assay: long term SHIME experiment with infant fecal samples (Example 1); settings: for Actinobacteria population (Abundance), colon model / butyrate concentration in colon model: Infant; for increase of butyrate production: infant gut microbiota, three weeks of treatment
Protocol: (§1) The model of the human gastrointestinal tract used was the SHIME®. The first two reactors are of the fill-and-draw principle to simulate different steps in food uptake and digestion, with peristaltic pumps adding a defined amount of SHIME® feed (140 mL 3×/day) and pancreatic and bile liquid (60 mL 3×/day), respectively to the stomach and small intestine compartment and emptying the respective reactors after specified intervals. The last three compartments simulate the large intestine. The SHIME® experiment for this study consisted of three stages: • Stabilization period: After inoculation of the colon reactors with a fresh faecal sample, a two-week stabilization period allowed the microbial community to differentiate in the different reactors depending on the local environmental conditions. During this period a basic nutritional matrix was provided to the SHIME to support the optimum diversity of the gut microbiota originally present in the faecal inoculum. • Control period: During this two-week reference period, the standard SHIME® nutrient matrix was further added to the model for a period of 14 days. Analysis of samples in this period allows to determine the baseline microbial community composition and activity in the different reactors, which will be used as a reference for evaluating the treatment effects. • Treatment period: During this three-week period, the SHIME® reactor was operated under nominal conditions, but with a diet supplemented with the 2′FL product on top of the normal composition. The diet supplemented with 2′FL was administered 3 times a day at a concentration of 1% SCFA Production were Measured Three Times Per Week Throughout the Experiment

[2] = test system: gut microbiota of a toddler; assay: long term SHIME experiment, comparison of different HMOs blends in toddler (Example 2)
Protocol: The model of the human gastrointestinal tract used was the SHIM ED. The first two reactors are of the fill-and-draw principle to simulate different steps in food uptake and digestion, with peristaltic pumps adding a defined amount of SHIME feed (140 mL 3×/day) and pancreatic and bile liquid (60 mL 3×/day), respectively to the stomach and small intestine compartment and emptying the respective reactors after specified intervals. The last three compartments simulate the large intestine. The SHIME® experiment for this study consisted of three stages: • Stabilization period: After inoculation of the colon reactors with a fresh faecal sample, a two-week stabilization period allowed the microbial community to differentiate in the different reactors depending on the local environmental conditions. During this period a basic nutritional matrix was provided to the SHIME to support the optimum diversity of the gut microbiota originally present in the faecal inoculum. • Control period: During this two-week reference period, the standard SHIME nutrient matrix was further added to the model for a period of 14 days. Analysis of samples in this period allows to determine the baseline microbial community composition and activity in the different reactors, which will be used as a reference for evaluating the treatment effects. • Treatment period: During this three-week period, the SHIME reactor was operated under nominal conditions, but with a diet supplemented with the 2′FL product on top of the normal composition or with the mixtures HMO-3 or HMO-5. The diet supplemented with HMOs administered 3 times a day at a concentration of 1%. In this experiment, also branched SCFA (b-SCFA=sum of isobutyrate, isovalerate and isocaproate) were measured which result from protein degradation and reflect proteolytic activity of the gut microbiota. A significant alterations in those metabolites was shown in fecal extracts from patients with colon cancer compared to controls Ref: Le Gall 2018 (Oncotarget, 2018, Vol. 9, (No. 70), pp: 33278-33289)

gut microbes = assay: gas production: samples from the proximal colon vessel of the SHIME treated with lactose or 2′-FL in a penicillin tube; settings: for gas production between 6-24 h (rank): 6-24 h timeframe, Lactose versus 2′FL; for gas production at 48 h (gaz pressure): 48 h incubation
Protocol: Gas production is a measure of fermentative activity by gut microbes. […] Gas production is not monitored in the long-term SHIME® model, given its regular flushing with N2 (to ensure anaerobiosis). Therefore, gas production was evaluated by collecting samples from the proximal colon vessel of the SHIME and treating them with lactose or 2′-FL in a penicillin tube. It was then incubated for 24 h and 48 h. The gas formation was assessed in those tubes.

[3] = test system: gut microbiota of a toddler; assay: long term SHIME experiment with toddler samples (Example 1); settings: for Actinobacteria population (Abundance), colon model / butyrate concentration in colon model: Toddler; for increase of butyrate production: young child, three weeks of treatment
Protocol: as §1

[4] = treatment week 1, diet with 1% 2′FL 3 times a day
[5] = treatment week 2, diet with 1% 2′FL 3 times a day
[6] = treatment week 3, diet with 1% 2′FL 3 times a day
[7] = distal colon, treatment week 3, diet with 1% HMOs 3 times a day

Molecule: 2′-fucosyllactose [2′-FL]
- Actinobacteria population (Abundance), colon model ([1]; treatment week 1): 31.8%
- butyrate concentration in colon model [1, 4]: 13.75 mM/m1
- Actinobacteria population (Abundance), colon model ([1]; treatment week 2): 46.3%
- butyrate concentration in colon model [1, 5]: 15.85 mM/m1
- Actinobacteria population (Abundance), colon model ([1]; treatment week 3): 43.5%
- butyrate concentration in colon model [1, 6]: 20.3 mM/m1
- increase in butyrate, onset of effect ([1]; infant fecal samples, over the weeks of treatment): more gradual
- increase of butyrate production ([1]; Distal Colon): 54%
- increase of butyrate production ([1]; Proximal Colon): 81%
- butyrate production in the colon, onset of effect [2]: immediate increase
- BCFA production in toddler [2, 7]: 3.1 mM
- butyrate production in toddler [2, 7]: 29.5 mM
- gas production between 6-24 h (rank) (gut microbes): lowest
- gas production at 48 h (gaz pressure) (gut microbes; Infant): 31.8 kPA
- gas production at 48 h (gaz pressure) (gut microbes; Toddler): 49.9 kPA
- gas production over 48 hours as compared to Lactose (gut microbes; both toddler and infant, 48 hours): less gas production
- increase in gas production corresponding to accelerated butyrate production (gut microbes; toddlers): no corresponding increase in gas production
- Actinobacteria population (Abundance), colon model ([3]; treatment week 1): 49.9%
- butyrate concentration in colon model [3, 4]: 28.1 mM/m1
- Actinobacteria population (Abundance), colon model ([3]; treatment week 2): 53%
- butyrate concentration in colon model [3, 5]: 30.2 mM/m1
- Actinobacteria population (Abundance), colon model ([3]; treatment week 3): 52.2%
- butyrate concentration in colon model [3, 6]: 30.3 mM/m1
- butyrate concentration in the colon, onset of effect ([3]; toddler samples): immediate increase
- butyrate concentrations, course through the treatment period ([3]; toddler samples): relatively stable
- effect on Actinobacteria phylum mainly composed of Bifidobacteria ([3]; toddlers): immediate effect
- increase of butyrate production ([3]; Distal Colon): 156%
- increase of butyrate production ([3]; Proximal Colon): 192%

Molecule: OC[C@H]1O[C@@H](O[C@H]2[C@H](O)[C@@H](O)C(O)O[C@@H]2CO)[C@H](O)[C@@H](O)[C@H]1O (stereo partly shown) [Lactose, reference compound]
- gas production between 6-24 h (rank) (gut microbes): highest
- gas production at 48 h (gaz pressure) (gut microbes; Infant): 4.7 kPA
- gas production at 48 h (gaz pressure) (gut microbes; Toddler): 12.8 kPA
